Reference: patent publication EP1075525B1, “DNA POLYMERASE FROM PYROBACULUM ISLANDICUM” (Roche Diagnostics GmbH, priority 1999, dated 2000)

Test system: DNA polymerase of P. islandicum
Assay: Non-radioactive DNA polymerase activity assay: influence of inhibitors and ions
Assay type: biochemical, Pyrobaculum islandicum
Details: for DNA polymerase activity: pH 7.5, 0.5 mM MgCl2, 0 mM KCl, 0.5 U

## [Cl-].[K+] [KCl]
In the presence of 100 mM KCl, 75°C, pH 7.3, 0.5 mM MgCl2
  residual activity: 7%

## CCN1C(=O)C=CC1=O [N-Ethylmaleimid]
1 mM N-Ethylmaleimid, preincubation of enzyme at 90°C for 20 min, 75°C
  DNA polymerase activity: 40%
2 mM N-Ethylmaleimid, preincubation of enzyme at 90°C for 20 min, 75°C
  DNA polymerase activity: 30%
5 mM N-Ethylmaleimid, preincubation of enzyme at 90°C for 20 min, 75°C
  DNA polymerase activity: 0%
After a preincubation with 5 mM NEM
  DNA polymerase activity (in words): total loss of activity

## Nc1nc2c(ncn2[C@H]2CC[C@@H](COP(=O)(O)OP(=O)(O)OP(=O)(O)O)O2)c(=O)[nH]1 [ddGTP]
ddGTP/dGTP = 5, 75°C
  DNA polymerase activity: 95%
ddGTP/dGTP = 20, 75°C
  DNA polymerase activity: 53%
ddGTP/dGTP ratio of 2
  inhibition of DNA polymerase (in words): No inhibition

## C[C@@]1(CO)[C@H](O)CC[C@@]2(C)[C@H]1CC[C@H]1C[C@@H]3C[C@@]12CC[C@]3(O)CO [Aphidicolin]
50 µM (17 µg/ml) aphidicolin, 75°C
  DNA polymerase activity: 100%
200 µM (68 µg/ml) aphidicolin, 75°C
  DNA polymerase activity: 70%
500 µM (170 µg/ml) aphidicolin, 75°C
  DNA polymerase activity: 55%
2000 µM (680 µg/ml) aphidicolin, 75°C
  DNA polymerase activity: 21%
